The DC50 is the concentration giving 50% degradation.

The experiment has as its target T1, PIP4K2C (Homo sapiens, UniProt Q8TBX8).
T1 sequence (Q8TBX8 1-421): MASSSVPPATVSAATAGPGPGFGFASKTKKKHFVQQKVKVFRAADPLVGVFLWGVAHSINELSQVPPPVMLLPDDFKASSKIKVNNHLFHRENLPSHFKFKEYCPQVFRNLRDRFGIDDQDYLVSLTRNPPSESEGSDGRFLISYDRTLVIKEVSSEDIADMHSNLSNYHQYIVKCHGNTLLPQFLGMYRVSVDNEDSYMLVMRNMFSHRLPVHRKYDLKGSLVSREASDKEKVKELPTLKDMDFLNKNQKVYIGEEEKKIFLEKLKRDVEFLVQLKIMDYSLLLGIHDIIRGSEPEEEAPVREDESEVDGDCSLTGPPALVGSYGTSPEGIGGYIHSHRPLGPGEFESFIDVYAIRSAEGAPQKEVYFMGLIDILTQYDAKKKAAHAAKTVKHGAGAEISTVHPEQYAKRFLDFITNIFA
As to the kind of experiment: HiBiT PIP4K2C degradation assay in MOLT-4 cells (endogenous PIP4K2C C-terminally tagged with HiBiT). In kind it is cell-based. Conditions: 6 hours of incubation time, rather than 24 hours; MOLT-4, top concentration 10 micromolar; read-out: HiBIT-degradation MOLT4 PIP4k2C DC50 (6 hours, marked *). On the set-up: untagged in primary human PBMCs and monocyte-derived dendritic cells. A digest of the protocol:
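DC50 derived by Hill fit of luminescence from Nano-Glo HiBiT lytic detection. Cells were HiBiT knock-in MOLT-4 (C-terminal tag on endogenous PIP4K2C), exposed 6 h or 24 h at 37 C to compound, top concentration 10 micromolar, 3-fold steps, 10 points, duplicates.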
In general terms: With HiBiT, luminescence reflects the tagged protein that the partner subunit can reach.
For the compound `O=C1CCC(Nc2ccc(C3CCN([C@H]4CC[C@H](NC(=O)[C@H]5CC[C@H](Nc6ncc(F)c(-c7cccc(N8CCCCC8)c7)n6)CC5)CC4)CC3)c(F)c2)C(=O)N1` (stereo partly drawn) [Compound 515, trans-N-(trans-4-(4-(4-((2,6-dioxopiperidin-3-yl)amino)-2-fluorophenyl)piperidin-1-yl)cyclohexyl)-4-((5-fluoro-4-(3-(piperidin-1-yl)phenyl)pyrimidin-2-yl)amino)cyclohexane-1-carboxamide], the DC50 was under 500 nM.

For the compound `O=C1CCC(Nc2ccc(N3CCC(N4CCC(C(=O)N[C@H]5CC[C@H](Nc6ncc(F)c(-c7cccc(N8CCCCC8)c7)n6)CC5)CC4)CC3)c(F)c2)C(=O)N1` (stereo partly drawn) [Compound 516, trans-1′-(4-((2,6-dioxopiperidin-3-yl)amino)-2-fluorophenyl)-N-(4-((5-fluoro-4-(3-(piperidin-1-yl)phenyl)pyrimidin-2-yl)amino)cyclohexyl)-[1,4′-bipiperidine]-4-carboxamide], the DC50 was under 500 nM. In the case of `O=C1CC[C@H](Nc2ccc(N3CCN([C@H]4CC[C@H](C(=O)N[C@H]5CC[C@H](Nc6ncc(F)c(-c7cccc(-c8ccc[nH]c8=O)c7)n6)CC5)CC4)CC3)c(F)c2)C(=O)N1` [Compound 517, trans-4-(4-(4-(((S)-2,6-dioxopiperidin-3-yl)amino)-2-fluorophenyl)piperazin-1-yl)-N-((trans)-4-((5-fluoro-4-(3-(2-oxo-1,2-dihydropyridin-3-yl)phenyl)pyrimidin-2-yl)amino)cyclohexyl)cyclohexane-1-carboxamide], the half-maximal degradation concentration (DC50) is under 500 nM. For `O=C1CCC(Nc2ccc(C3CCN(CC4(O)CCN(C(=O)[C@H]5CC[C@H](Nc6ncc(F)c(-c7cccc(C8CC8)c7)n6)CC5)CC4)CC3)c(F)c2)C(=O)N1` (stereo partly drawn) [Compound 518, trans-3-((4-(1-((1-(4-((4-(3-cyclopropylphenyl)-5-fluoropyrimidin-2-yl)amino)cyclohexane-1-carbonyl)-4-hydroxypiperidin-4-yl)methyl)piperidin-4-yl)-3-fluorophenyl)amino)piperidine-2,6-dione] the value was under 500 nM. To `O=C1CC[C@@H](Nc2ccc(C3CCN([C@H]4CC[C@H](NC(=O)[C@H]5CC[C@H](Nc6ncc(F)c(-c7cccc(N8CCCOC8=O)n7)n6)CC5)CC4)CC3)c(F)c2)C(=O)N1` [Compound 519, (trans)-N-((trans)-4-(4-(4-((2,6-dioxopiperidin-3-yl)amino)-2-fluorophenyl)piperidin-1-yl)cyclohexyl)-4-((5-fluoro-4-(6-(2-oxo-1,3-oxazinan-3-yl)pyridin-2-yl)pyrimidin-2-yl)amino)cyclohexane-1-carboxamide] belongs under 500 nM; to `O=C1CCC(Nc2ccc(C3CCN([C@H]4CC[C@H](NC(=O)[C@H]5CC[C@H](Nc6ncc(F)c(-c7cccc(-n8ccccc8=O)n7)n6)CC5)CC4)CC3)c(F)c2)C(=O)N1` (stereo partly drawn) [Compound 520, trans-N-(trans-4-(4-(4-((2,6-dioxopiperidin-3-yl)amino)-2-fluorophenyl)piperidin-1-yl)cyclohexyl)-4-((5-fluoro-4-(2-oxo-2H-[1,2′-bipyridin]-6′-yl)pyrimidin-2-yl)amino)cyclohexane-1-carboxamide], under 500 nM. On to `O=C1CCC(Nc2ccc(N3CCC(N4CCC(NC(=O)[C@H]5CC[C@H](Nc6ncc(F)c(-c7cccc(N8CCCCC8=O)c7)n6)CC5)CC4)CC3)c(F)c2)C(=O)N1` (stereo partly drawn) [Compound 521, trans-N-(1′-(4-((2,6-dioxopiperidin-3-yl)amino)-2-fluorophenyl)-[1,4′-bipiperidin]-4-yl)-4-((5-fluoro-4-(3-(2-oxopiperidin-1-yl)phenyl)pyrimidin-2-yl)amino)cyclohexane-1-carboxamide], for which the half-maximal degradation concentration (DC50) is under 500 nM. For `O=C1CCC(Nc2ccc(N3CCC(N4CCC(NC(=O)[C@H]5CC[C@H](Nc6ncc(F)c(-c7cccc(N8CCCOC8=O)c7)n6)CC5)CC4)CC3)c(F)c2)C(=O)N1` (stereo partly drawn) [Compound 522, trans-N-(1′-(4-((2,6-dioxopiperidin-3-yl)amino)-2-fluorophenyl)-[1,4′-bipiperidin]-4-yl)-4-((5-fluoro-4-(3-(2-oxo-1,3-oxazinan-3-yl)phenyl)pyrimidin-2-yl)amino)cyclohexane-1-carboxamide], the DC50 was under 500 nM. For `O=C1CCC(Nc2ccc(N3CCC(N4CCC(C(=O)N[C@H]5CC[C@H](Nc6ncc(F)c(-c7cccc(N8CCCCC8)c7)n6)CC5)CC4)C(F)C3)c(F)c2)C(=O)N1` (some centres unmarked) [Compound 523, 1′-(4-((2,6-dioxopiperidin-3-yl)amino)-2-fluorophenyl)-3′-fluoro-N-((1r,4r)-4-((5-fluoro-4-(3-(piperidin-1-yl)phenyl)pyrimidin-2-yl)amino)cyclohexyl)-[1,4′-bipiperidine]-4-carboxamide] the value was under 500 nM. To `O=C1CCC(Nc2ccc(N3CCC(N4CCC(C(=O)N[C@H]5CC[C@H](Nc6ncc(F)c(-c7cccc(N8CCCCC8=O)c7)n6)CC5)CC4)C(F)C3)c(F)c2)C(=O)N1` (some centres unmarked) [Compound 524, 1′-(4-((2,6-dioxopiperidin-3-yl)amino)-2-fluorophenyl)-3′-fluoro-N-((1r,4r)-4-((5-fluoro-4-(3-(2-oxopiperidin-1-yl)phenyl)pyrimidin-2-yl)amino)cyclohexyl)-[1,4′-bipiperidine]-4-carboxamide] belongs under 500 nM.

Regarding `O=C1CCC(Nc2ccc(N3CCC(N4CCC(C(=O)N[C@H]5CC[C@H](Nc6ncc(F)c(-c7cccc(N8CCCOC8=O)c7)n6)CC5)CC4)C(F)C3)c(F)c2)C(=O)N1` (some centres unmarked) [Compound 525, 1′-(4-((2,6-dioxopiperidin-3-yl)amino)-2-fluorophenyl)-3′-fluoro-N-((1r,4r)-4-((5-fluoro-4-(3-(2-oxo-1,3-oxazinan-3-yl)phenyl)pyrimidin-2-yl)amino)cyclohexyl)-[1,4′-bipiperidine]-4-carboxamide], the DC50 was under 500 nM.

In the case of `O=C1CCC(Nc2ccc(N3CCC(N4CCC(C(=O)N[C@H]5CC[C@H](Nc6ncc(F)c(-c7cccc(N8CCOCC8=O)c7)n6)CC5)CC4)C(F)C3)c(F)c2)C(=O)N1` (some centres unmarked) [Compound 526, 1′-(4-((2,6-dioxopiperidin-3-yl)amino)-2-fluorophenyl)-3′-fluoro-N-((1r,4r)-4-((5-fluoro-4-(3-(3-oxomorpholino)phenyl)pyrimidin-2-yl)amino)cyclohexyl)-[1,4′-bipiperidine]-4-carboxamide], the DC50 is under 500 nM. For `O=C1CCC(Nc2ccc(N3CCN([C@H]4CC[C@H](NC(=O)[C@H]5CC[C@H](Nc6ncc(F)c(-c7cccc(N8CCCCC8)c7)n6)CC5)CC4)CC3)c(F)c2)C(=O)N1` (stereo partly drawn) [Compound 527, trans-(1r,4R)—N-((1r,4R)-4-(4-(4-((2,6-dioxopiperidin-3-yl)amino)-2-fluorophenyl)piperazin-1-yl)cyclohexyl)-4-((5-fluoro-4-(3-(piperidin-1-yl)phenyl)pyrimidin-2-yl)amino)cyclohexane-1-carboxamide] the value was under 500 nM. Consider `O=C1CCC(Nc2ccc(N3CCN(CC4(F)CCN(C(=O)[C@H]5CC[C@H](Nc6ncc(F)c(-c7cccc(-n8ccccc8=O)c7)n6)CC5)CC4)CC3)c(F)c2)C(=O)N1` (stereo partly drawn) [Compound 528, trans-3-((3-fluoro-4-(4-((4-fluoro-1-(4-((5-fluoro-4-(3-(2-oxopyridin-1(2H)-yl)phenyl)pyrimidin-2-yl)amino)cyclohexane-1-carbonyl)piperidin-4-yl)methyl)piperazin-1-yl)phenyl)amino)piperidine-2,6-dione], for which the DC50 is under 500 nM. For the compound `O=C1CCC(Nc2ccc(N3CCN(CC4(F)CCN(C(=O)[C@H]5CC[C@H](Nc6ncc(F)c(-c7cccc(C8CC8)c7)n6)CC5)CC4)CC3)c(F)c2)C(=O)N1` (stereo partly drawn) [Compound 529, trans-3-((4-(4-((1-((1r,4r)-4-((4-(3-cyclopropylphenyl)-5-fluoropyrimidin-2-yl)amino)cyclohexane-1-carbonyl)-4-fluoropiperidin-4-yl)methyl)piperazin-1-yl)-3-fluorophenyl)amino)piperidine-2,6-dione], the DC50 was under 500 nM. For the compound `O=C1CCC(Nc2ccc(N3CCN(CC4(F)CCN(C(=O)[C@H]5CC[C@H](Nc6ncc(F)c(-c7cccc(N8CCOCC8=O)c7)n6)CC5)CC4)CC3)c(F)c2)C(=O)N1` (stereo partly drawn) [Compound 530, trans-3-((3-fluoro-4-(4-((4-fluoro-1-(4-((5-fluoro-4-(3-(3-oxomorpholino)phenyl)pyrimidin-2-yl)amino)cyclohexane-1-carbonyl)piperidin-4-yl)methyl)piperazin-1-yl)phenyl)amino)piperidine-2,6-dione], the DC50 is under 500 nM. To `O=C1CCC(Nc2ccc(N3CCC(N4CCC(NC(=O)[C@H]5CC[C@H](Nc6ncc(F)c(-c7cccc(N8CCCCC8)c7)n6)CC5)CC4)CC3)c(F)c2)C(=O)N1` (stereo partly drawn) [Compound 531, trans-N-(1′-(4-((2,6-dioxopiperidin-3-yl)amino)-2-fluorophenyl)-[1,4′-bipiperidin]-4-yl)-4-((5-fluoro-4-(3-(piperidin-1-yl)phenyl)pyrimidin-2-yl)amino)cyclohexane-1-carboxamide] belongs under 500 nM.

These data come from patent publication US20260355196A1, “INHIBITORS AND DEGRADERS OF PIP4K PROTEIN” (Larkspur Biosciences, Inc., priority 2023, published 2026).
